In patent publication US10544156B2, “Hemi-synthetic trilobine analogs for use as a drug” (PIERRE FABRE MEDICAMENT, priority 2015, dated 2020):
Like-named read-outs stand apart in the source and are kept apart here.

How the values were obtained:
[1] = target: T1, human C-terminal DNMT3A (623-908a.a.) (Homo sapiens, UniProt Q9Y6K1); experiment: hDNMT3A assay (restriction-based fluorescence assay); type: biochemical; settings: for inhibition at 10 µM: read-out: hDNMT 3A inhibition, Inhibition (%) 10 μM; for inhibition at 32 µM: read-out: hDNMT 3A inhibition, Inhibition (%) 32 μM
T1 construct: The human C-terminal DNMT3A (623-908a.a.); made in house
T1 sequence (Q9Y6K1 627-912 limits assumed): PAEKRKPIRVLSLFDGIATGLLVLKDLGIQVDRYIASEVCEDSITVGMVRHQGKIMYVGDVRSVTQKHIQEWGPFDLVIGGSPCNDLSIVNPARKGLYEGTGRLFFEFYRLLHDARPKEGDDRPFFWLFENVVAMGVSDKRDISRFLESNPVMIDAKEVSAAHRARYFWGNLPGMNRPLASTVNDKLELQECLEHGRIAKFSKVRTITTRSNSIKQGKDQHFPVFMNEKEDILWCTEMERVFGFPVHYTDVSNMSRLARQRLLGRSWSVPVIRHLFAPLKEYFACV
Source text: hDNMT3A enzyme inhibition was adapted from the restriction-based fluorescence assay protocol as described in the literature (Ceccaldi et al. Chem Bio Chem 2011, 12, 1337-1345). Briefly, a 5′-labelled biotin oligonucleotide is hybridized to its complementary strand labelled with 6-carboxyfluorescein at the 3′-end into a 384 well microplate (black Optiplates; Perkin Elmer) pre-coated with avidin. The duplex contains a unique CpG site overlapping with a restriction site of a methylation sensitive restriction enzyme. The human C-terminal DNMT3A (623-908a.a.), produced as described in (Gros et al. Nucl. Acids Res. 2013, 41(19):e185), was added in each well (200 ng/well) and mixed with the chemical compounds at desired concentrations and freshly prepared SAM (20 μM final concentration) to start the reaction in a total volume of 50 μL. After 1 hour incubation at 37° C. each well were washed three times with PBS, Tween-20 0.05%, NaCl (500 mM) and three more times with PBST. Specific fluorescent signals were detected with the methylation-sensitive restriction enzyme HpyCH4IV (NEB) as described and measured on a Perkin Elmer Envision detector. The percentage of inhibition is reported. The formula used to calculate the percentage of inhibition is [(X−Y)/X]×100, where X is the signal determined in the absence of the inhibitor and Y is the signal obtained in the presence of the inhibitor. The concentration at which 50% of efficacy of inhibition is observed (EC50) was determined by analysis of a concentration range of the tested compound in triplicates. The non-linear regression fittings with sigmoidal dose-response (variable slope) were performed with GraphPad Prism 4.03 (GraphPad Software).

[2] = target: T2, His-DNMT1 (182 kDa, human) (Homo sapiens, UniProt P26358); experiment: hDNMT1 assay ([methyl-3H] SAM Flashplate); type: biochemical; settings: for EC50: read-out: EC50 (μM), hDNMT 1 inhibition; for inhibition at 10 µM: read-out: hDNMT 1 inhibition, Inhibition (%) 10 μM; for inhibition at 32 µM: read-out: hDNMT 1 inhibition, Inhibition (%) 32 μM
T2 construct: His; made in house
T2 sequence (P26358 whole entry): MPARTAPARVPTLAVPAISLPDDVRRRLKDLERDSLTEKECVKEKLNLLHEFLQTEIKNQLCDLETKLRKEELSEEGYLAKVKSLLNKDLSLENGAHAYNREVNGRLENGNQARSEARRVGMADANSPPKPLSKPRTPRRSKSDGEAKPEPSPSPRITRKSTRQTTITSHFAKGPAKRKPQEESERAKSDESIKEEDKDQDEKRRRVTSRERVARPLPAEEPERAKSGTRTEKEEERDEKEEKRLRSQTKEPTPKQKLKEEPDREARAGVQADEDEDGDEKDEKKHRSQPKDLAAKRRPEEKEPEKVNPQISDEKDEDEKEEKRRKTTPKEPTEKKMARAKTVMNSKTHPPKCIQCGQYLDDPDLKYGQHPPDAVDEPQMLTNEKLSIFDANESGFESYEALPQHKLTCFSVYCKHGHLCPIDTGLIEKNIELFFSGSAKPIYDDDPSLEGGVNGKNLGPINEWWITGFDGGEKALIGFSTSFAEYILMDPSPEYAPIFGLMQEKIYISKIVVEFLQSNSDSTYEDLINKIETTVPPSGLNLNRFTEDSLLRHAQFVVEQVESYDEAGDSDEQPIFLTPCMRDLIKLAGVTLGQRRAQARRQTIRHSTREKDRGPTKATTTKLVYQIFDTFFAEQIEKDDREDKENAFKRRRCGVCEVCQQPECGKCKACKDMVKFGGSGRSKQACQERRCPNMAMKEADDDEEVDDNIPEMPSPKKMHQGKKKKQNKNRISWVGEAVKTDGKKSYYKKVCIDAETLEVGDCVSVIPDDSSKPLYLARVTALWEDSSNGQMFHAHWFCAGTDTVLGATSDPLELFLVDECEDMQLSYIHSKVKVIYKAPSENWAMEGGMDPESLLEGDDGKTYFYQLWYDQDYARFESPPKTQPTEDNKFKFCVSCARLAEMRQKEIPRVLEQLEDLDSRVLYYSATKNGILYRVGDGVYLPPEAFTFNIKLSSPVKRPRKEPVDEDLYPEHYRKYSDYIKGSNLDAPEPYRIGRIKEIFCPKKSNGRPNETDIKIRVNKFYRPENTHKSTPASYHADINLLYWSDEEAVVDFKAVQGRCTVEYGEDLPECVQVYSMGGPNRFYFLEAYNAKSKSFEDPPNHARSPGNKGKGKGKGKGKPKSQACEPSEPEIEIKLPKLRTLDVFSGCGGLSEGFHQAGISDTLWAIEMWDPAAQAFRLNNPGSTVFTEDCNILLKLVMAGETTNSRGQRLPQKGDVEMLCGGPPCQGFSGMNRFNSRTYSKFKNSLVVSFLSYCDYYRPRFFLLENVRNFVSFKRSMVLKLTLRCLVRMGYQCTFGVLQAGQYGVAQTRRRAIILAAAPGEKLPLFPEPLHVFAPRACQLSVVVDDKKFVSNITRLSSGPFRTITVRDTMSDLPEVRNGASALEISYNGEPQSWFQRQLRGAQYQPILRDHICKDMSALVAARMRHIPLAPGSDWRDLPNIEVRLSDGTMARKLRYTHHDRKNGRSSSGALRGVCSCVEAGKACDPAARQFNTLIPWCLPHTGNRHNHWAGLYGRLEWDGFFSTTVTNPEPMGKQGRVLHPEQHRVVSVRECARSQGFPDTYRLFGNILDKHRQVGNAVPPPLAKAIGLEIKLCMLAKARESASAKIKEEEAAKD
Method: His-DNMT1 (182 kDa, human) was cloned, expressed and purified as described (Halby et al. Chem Bio Chem 2012, 13, 157-165). The reaction was performed in a 10 μL total reaction volume in low volume NBS™ 384-well microplates (Corning), containing the tested compound (up to 1% DMSO), 1 μM of a SAM/[methyl-^3H] SAM (3TBq/mmol, PerkinElmer) mix in a ratio of 3-to-1 (isotopic dilution 1*:3), 0.3 μM of biotinylated hemimethylated DNA duplex (5′-GATmCGCmCGATGmCGmCGAATmCGmCGATmCGATGmCGAT-3′ and BIOT-5′-[…]-3′), and 90 nM of DNMT1 in methylation buffer (20 mM HEPES pH 7.2, 1 mM EDTA, 50 mM KCl, 25 μg/mL BSA). The reaction was incubated at 37° C. for 2 hours. 8 μL are then transferred into a streptavidin 96-well scintillant coated Flashplate™ (PerkinElmer) containing 190 μL of 20 μM SAH in 50 mM Tris-HCl pH 7.4. The Flashplate™ was agitated at room temperature for 1 hour and read in 200 μL of 50 mM Tris-HCl pH 7.4 on TopCount NXT (PerkinElmer). The percentage of inhibition is reported. The formula used to calculate the percentage of inhibition is [(X−Y)/X]×100, where X is the signal determined in the absence of the inhibitor and Y is the signal obtained in the presence of the inhibitor.

[3] = test system: luciferase reporter gene under control of methylated CMV promoter in KG-1 cells; experiment: CMV-luc reexpression in KG-1 cells; type: cell-based, human; settings: for Induction Fold (IF) of luciferase gene reporter in KG-1 CMV-Luc: 24 h, vs DMSO; for IF-24 h, KG1 CMV-Luc model: at 5 μM, 24 h (Table 5)
Method: KG-1 cells were stably transfected with the firefly luciferase reporter gene (luc+ from pGL3; Promega) under the control of the cytomegalovirus (CMV) promoter (from pEGFP-N1; Clontech Laboratories Inc.) partially methylated (50%). 20,000 cells per well were seeded in a 96-well plate. After 24 h incubation in the presence of the test compound or solvant (DMSO), the induction of the promoter was measured by quantification of the luciferase signal with the Brite-lite assay system (PerkinElmer) according to the manufacturer's protocol. The luminescence was measured on an EnVision multilabel plate reader (PerkinElmer), and the data are expressed as the fold induction as compared with the DMSO control. The mean of three experiments and the standard error is reported.

[4] = test system: HCT116 (colorectal cancer); experiment: Anti-proliferative activity (ATPLite); type: cell-based; settings: Homo sapiens, HCT-116; daily treatment, cell viability by ATPLite; read-out: Antiproliferative activity: IC50 (μM) HCT116 (colorectal cancer)
Method: (§1) To measure the anti-proliferative properties of tested molecules, 2×10^4 cells are seeded at day 0 in a 96 wells plate. The compounds to be tested, stored at −20° C. as 10^−2 M stock solution in 100% DMSO, are freshly diluted on day 1 in the cell medium, before adding a dose range of 3.2 nM to 10 μM to the cells. Cells are treated everyday and cell viability assessed after 3 days or 7 days of treatment. The cell viability is assessed using the ATPLite kit from Perkin (ATPlite 1 Step Luminescence Assay System, ref 3016739), following the provider instructions. The raw data are analyzed with GraphPad Prism software (v4.03) to generate IC50 values corresponding to the compound concentrations giving 50% reduction in cell viability. The values presented are the mean results of at least two independent experiments. The standard errors are indicated.

KG-1 (leukemia) = experiment: Anti-proliferative activity (ATPLite); type: cell-based; settings: Homo sapiens; daily treatment, cell viability by ATPLite; read-out: Antiproliferative activity: IC50 (μM) KG-1 (leukemia)
Method: as §1

[5] = concentration at which 50% of efficacy of inhibition is observed, read-out: EC50 (μM), hDNMT 3A inhibition
[6] = interval line below the EC50 of the same compound, read-out: EC50 (μM), range given

Question: `CCN(CC)CCCNC(=O)N1CCc2cc3c4cc2[C@@H]1Cc1ccc(OC)c(c1)Oc1ccc(cc1)C[C@H]1c2c(cc(OC)c(c2O4)O3)CCN1C(=O)NCCCN(CC)CC` [Product 48] was tested. Which EC50 [1, 5] did it give?
Answer: 1.93 µM

Question: And the EC50 [1, 6]?
Answer: 1 to 3.72 µM

Question: What about the inhibition at 10 µM [1] of the same compound?
Answer: 82%

Question: And the inhibition at 32 µM [1]?
Answer: 98%

Question: And the EC50 [2]?
Answer: 14.6 ± 1.3 µM

Question: And the inhibition at 10 µM [2]?
Answer: 32%

Question: What about the inhibition at 32 µM [2] of the same compound?
Answer: 98%

Question: What about the “Induction Fold (IF) of luciferase gene reporter in KG-1 CMV-Luc” value (from here on “Induction Fold (IF)”) ([3]; 0.1 μM) of the same compound?
Answer: 1.1 ± 0.1

Question: And the “Induction Fold (IF)” value ([3]; 0.32 μM)?
Answer: 1.2 ± 0.3

Question: What about the “Induction Fold (IF)” value ([3]; 1 μM) of the same compound?
Answer: 1.2 ± 0.1

Question: And the “Induction Fold (IF)” value ([3]; 3.2 μM)?
Answer: 1.2 ± 0.1

Question: What about the “Induction Fold (IF)” value ([3]; 5 μM) of the same compound?
Answer: 1.3 ± 0.1

Question: And the “Induction Fold (IF)” value ([3]; 10 μM)?
Answer: 2.3 ± 1.3

Question: And the “IF-24 h, KG1 CMV-Luc model” value [3]?
Answer: 1.1

Question: How did the EC50 [1, 5] turn out when `CCN(CC)CCCNC(=S)N1CCc2cc3c4cc2[C@@H]1Cc1ccc(OC)c(c1)Oc1ccc(cc1)C[C@H]1c2c(cc(OC)c(c2O4)O3)CCN1C` [Product 42] was run?
Answer: 0.64 µM

Question: And the EC50 [1, 6]?
Answer: 0.47 to 0.86 µM

Question: And the inhibition at 10 µM [1]?
Answer: 98%

Question: And the inhibition at 32 µM [1]?
Answer: 98%

Question: What about the EC50 [2] of the same compound?
Answer: 10.6 ± 2.8 µM

Question: And the inhibition at 10 µM [2]?
Answer: 38%

Question: And the inhibition at 32 µM [2]?
Answer: 100%

Question: And the “Induction Fold (IF)” value ([3]; 0.1 μM)?
Answer: 1.2 ± 0.1

Question: And the “Induction Fold (IF)” value ([3]; 0.32 μM)?
Answer: 1.3 ± 0.1

Question: What about the “Induction Fold (IF)” value ([3]; 1 μM) of the same compound?
Answer: 1.5 ± 0.1

Question: What about the “Induction Fold (IF)” value ([3]; 3.2 μM) of the same compound?
Answer: 2.0 ± 0.2

Question: And the “Induction Fold (IF)” value ([3]; 5 μM)?
Answer: 2.3 ± 0.1

Question: What about the “IF-24 h, KG1 CMV-Luc model” value [3] of the same compound?
Answer: 1.1 ± 0.6

Question: And the IC50 [4]?
Answer: 0.5 ± 0.01 µM

Question: And the IC50 (KG-1 (leukemia))?
Answer: 3.57 ± 0.04 µM
